Columns and labels:
[1] = Hydrosolubility of a dried aliquot of luminarine-7; type: physicochemical; details: dried aliquot portion
Protocol: (§1) Stirring takes place for 2 hours and then the dicyclohexylurea formed is filtered. The remaining product, luminarine-7, is kept in solution in dimethyl formamide.

[2] = Storage stability of luminarine-7 in dimethyl formamide solution; type: physicochemical; details: -20° C., in the presence of P2O5
Protocol: as §1

[3] = reference standard; 2 mg/l in 0.1N H2SO4; cited from earlier work
[4] = Comparison of fluorescence, absorbance and chemiluminescence properties of coumarin nuclei; type: physicochemical; details: compared with coumarine-1 and coumarine-311, tables 1 and 2
Protocol: The fluorescence measurements are carried out with a Perkin Elmer LS5 spectrifluorometer with 2 nm slit widths for two monochromators. The absorbance measurements were carried out with a Jobin Yvon JY3 spectrophotometer. The chemiluminescence measurements were obtained by using a Jobin Yvon JY4 spectrofluorimeter with 10 nm slit widths. The cell for the liquid samples is a 10×10 mm quart cell with a capacity of 3 ml and filled with 2 ml of solution, which corresponds to a real solution volume exposed to the photomultiplier of 1.35 ml. […] For the coumarins, use was made of a solution of acetone and ethyl acetate in a volume ratio of 75:25 with a 10^-6 mole/l coumarin concentration ensuring in each case an absorbance below 0.05. […] When DNPO is used, to the same solution of coumarin in acetone are added 0.5 ml of a 10^-3 mole/l DNPO solution in ethyl acetate and 0.5 ml of a 10^-2 mole/l H2 O2 solution in acetone.

[5] = Chemiluminescence measurements with DNPO (printed DMPO in table 2) and H2O2; type: physicochemical; details: DMPO = bis(dinitro-2,4 phenyl)oxalate; for RC = chemiluminescence quantum efficiency: 10^-3 mole/l coumarin; for RE = excitation efficiency: RC = Rex × RF
Protocol: (§2) The absorbance measurements were carried out with a Jobin Yvon JY3 spectrophotometer. The chemiluminescence measurements were obtained by using a Jobin Yvon JY4 spectrofluorimeter with 10 nm slit widths. The cell for the liquid samples is a 10×10 mm quart cell with a capacity of 3 ml and filled with 2 ml of solution, which corresponds to a real solution volume exposed to the photomultiplier of 1.35 ml.
(§3) In order to determine the chemiluminescence quantum efficiencies Rc, the intensity was estimated as a function of time at the emission maximum. When the intensity decrease is relatively low, the emission spectrum is plotted and then the intensity is followed as a function of time until it has dropped to 2% of the maximum intensity.
(§4) The other luminescence parameters are measured directly. These consist of the maximum intensity (lmax), the time for reaching the maximum intensity (Tmax) and the time for reaching half the maximum intensity following the maximum time (T1/2).
(§5) The chemi luminescence efficiency Rc is calculated by the Rauhut method described in J. Am. Chem. Soc., 88, 15, 1966, p.3604.
(§6) The excitation efficiency Rex is determined on the basis of the formula: […]
(§7) For chemiluminescence measurements with TCPO, to 1 ml of the solution containing 10^-3 mole/l of coumarin are added 0.5 ml of a 2·10^-3 mole/l TCPO solution in ethyl acetate, 0.5 ml of a 2·10^-2 mole/l H2 O2 solution in acetone and 10 μl of a 0.1 mole/l imidazole nitrate buffer at pH 7.5. When DNPO is used, to the same solution of coumarin in acetone are added 0.5 ml of a 10^-3 mole/l DNPO solution in ethyl acetate and 0.5 ml of a 10^-2 mole/l H2 O2 solution in acetone.

[6] = Chemiluminescence as a function of the pH of the solution; type: physicochemical
Protocol: as §2, §3, §4, §5, §7
Table 4 gives the variations of the chemiluminescence efficiency, lmax, Tmax and T1/2, as a function of the pH of the solution. […] However, the values for Tmax and T1/2 decrease when the pH increases beyond 5.

[7] = Chemiluminescence measurements with TCPO and H2O2; type: physicochemical; details: TCPO = bis(trichloro-2,4,6 phenyl) oxalate; for RC = chemiluminescence quantum efficiency: 10^-3 mole/l coumarin, imidazole nitrate buffer pH 7.5; for RE = excitation efficiency: RC = Rex × RF
Protocol: as §2, §3, §4, §5, §6, §7

[8] = Fluorescence measurements (quantum efficiency vs quinine disulphate, sensitivity); type: physicochemical; details: for S = fluorescence sensitivity: acetone/ethyl acetate 75:25; for RF = fluorescence quantum efficiency: acetone/ethyl acetate 75:25, 10^-6 mole/l coumarin, 20 ± 2° C., vs quinine disulphate
Protocol: The fluorescence measurements are carried out with a Perkin Elmer LS5 spectrifluorometer with 2 nm slit widths for two monochromators.
(§8) Fluorescence and Absorbance Measurements
(§9) These measurements were carried out at 20^+ 2° C. and the quantum efficiencies of fluorescence RF of coumarins-1, 311 and 102 were determined compared with quinine disulphate, whose fluorescence quantum efficiency is 0.546 using the Parker method described in Analyst, 85, 1960, p. 587 using a 2 mg/l quinine disulphate solution in 0.1N H2 SO4.
(§10) For the coumarins, use was made of a solution of acetone and ethyl acetate in a volume ratio of 75:25 with a 10^-6 mole/l coumarin concentration ensuring in each case an absorbance below 0.05.

[9] = Chemiluminescence with TCPO and H2O2 as a function of the coumarin-102 concentration; type: physicochemical; details: for Imax (maximum intensity) / RC × 10^4 (chemiluminescence efficiency) / T1/2 (time for reaching half the maximum intensity following the maximum time) / Tmax (time for reaching the maximum intensity): TCPO and H2O2
Protocol: The absorbance measurements were carried out with a Jobin Yvon JY3 spectrophotometer. The chemiluminescence measurements were obtained by using a Jobin Yvon JY4 spectrofluorimeter with 10 nm slit widths. The cell for the liquid samples is a 10×10 mm quart cell with a capacity of 3 ml and filled with 2 ml of solution, which corresponds to a real solution volume exposed to the photomultiplier of 1.35 ml. In order to determine the chemiluminescence quantum efficiencies Rc, the intensity was estimated as a function of time at the emission maximum. […] The other luminescence parameters are measured directly. These consist of the maximum intensity (lmax), the time for reaching the maximum intensity (Tmax) and the time for reaching half the maximum intensity following the maximum time (T1/2). The chemi luminescence efficiency Rc is calculated by the Rauhut method described in J. Am. Chem. […] When DNPO is used, to the same solution of coumarin in acetone are added 0.5 ml of a 10^-3 mole/l DNPO solution in ethyl acetate and 0.5 ml of a 10^-2 mole/l H2 O2 solution in acetone.

[10] = Absorbance measurements (molecular extinction coefficient); type: physicochemical; details: acetone/ethyl acetate 75:25, 10^-6 mole/l coumarin
Protocol: as §2, §8, §9, §10

O=C(CCC(=O)ON1C(=O)CCC1=O)NCCOCCOCCOCCOCCOCCNC(=O)Cc1cc(=O)oc2c3c4c(cc12)CCCN4CCC3 [luminarine-7]
hydrosolubility [1]: total hydrosolubility
storage stability [2]: several months at -20 °C without any deterioration

C=CC1CN2CCC1CC2C(O)c1ccnc2ccc(OC)cc12 (stereo not drawn) [quinine disulphate]
fluorescence quantum efficiency [3]: 0.546

Cc1cc(=O)oc2c3c4c(cc12)CCCN4CCC3 [COUMARINE-102, tetrahydro-2,3,5,6,7,1H,5H,11H-(1)-benzopyrano(6,7,8-ij)methyl-9 quinolizinone-11]
fluorescence, absorbance and chemiluminescence properties [4]: better fluorescence, absorbance and chemiluminescece properties
RC = chemiluminescence quantum efficiency [5]: 0.26 10^2 E · mole^-1
RE = excitation efficiency [5]: 0.45 10^2
Imax (maximum intensity) ([6]; pH 4): 24 A.U.
RC × 10^4 (chemiluminescence efficiency) ([6]; pH 4): 1.52 E · mole^-1
T1/2 (time for reaching half the maximum intensity following the maximum time) ([6]; pH 4): 5.0 min
Tmax (time for reaching the maximum intensity) ([6]; pH 4): 0.8 min
Imax (maximum intensity) ([6]; pH 5): 17 A.U.
RC × 10^4 (chemiluminescence efficiency) ([6]; pH 5): 1.58 E · mole^-1
T1/2 (time for reaching half the maximum intensity following the maximum time) ([6]; pH 5): 6.0 min
Tmax (time for reaching the maximum intensity) ([6]; pH 5): 1.0 min
Imax (maximum intensity) ([6]; pH 6): 25 A.U.
RC × 10^4 (chemiluminescence efficiency) ([6]; pH 6): 2.34 E · mole^-1
T1/2 (time for reaching half the maximum intensity following the maximum time) ([6]; pH 6): 5.6 min
Tmax (time for reaching the maximum intensity) ([6]; pH 6): 0.8 min
Imax (maximum intensity) ([6]; pH 7): 110 A.U.
RC × 10^4 (chemiluminescence efficiency) ([6]; pH 7): 2.23 E · mole^-1
T1/2 (time for reaching half the maximum intensity following the maximum time) ([6]; pH 7): 1.8 min
Tmax (time for reaching the maximum intensity) ([6]; pH 7): 0.4 min
Imax (maximum intensity) ([6]; pH 8): 245 A.U.
RC × 10^4 (chemiluminescence efficiency) ([6]; pH 8): 1.60 E · mole^-1
T1/2 (time for reaching half the maximum intensity following the maximum time) ([6]; pH 8): 0.4 min
Tmax (time for reaching the maximum intensity) ([6]; pH 8): 0.2 min
RC = chemiluminescence quantum efficiency [7]: 0.37 10^2 E · mole^-1
RE = excitation efficiency [7]: 0.65 10^2
S = fluorescence sensitivity [8]: 36 10^3
RF = fluorescence quantum efficiency [8]: 0.57
Imax (maximum intensity) ([9]; (C102) 1.4 × 10^-3): 301 A.U.
RC × 10^4 (chemiluminescence efficiency) ([9]; (C102) 1.4 × 10^-3): 12.0 E · mole^-1
T1/2 (time for reaching half the maximum intensity following the maximum time) ([9]; (C102) 1.4 × 10^-3): 0.10 min
Tmax (time for reaching the maximum intensity) ([9]; (C102) 1.4 × 10^-3): 0.2 min
Imax (maximum intensity) ([9]; (C102) 1.4 × 10^-6): 75 A.U.
RC × 10^4 (chemiluminescence efficiency) ([9]; (C102) 1.4 × 10^-6): 4.14 E · mole^-1
T1/2 (time for reaching half the maximum intensity following the maximum time) ([9]; (C102) 1.4 × 10^-6): 0.15 min
Tmax (time for reaching the maximum intensity) ([9]; (C102) 1.4 × 10^-6): 0.2 min
Imax (maximum intensity) ([9]; (C102) 1.4 × 10^-7): 31 A.U.
RC × 10^4 (chemiluminescence efficiency) ([9]; (C102) 1.4 × 10^-7): 2.31 E · mole^-1
T1/2 (time for reaching half the maximum intensity following the maximum time) ([9]; (C102) 1.4 × 10^-7): 0.12 min
Tmax (time for reaching the maximum intensity) ([9]; (C102) 1.4 × 10^-7): 0.2 min
Imax (maximum intensity) ([9]; (C102) 1.4 × 10^-8): 3.2 A.U.
RC × 10^4 (chemiluminescence efficiency) ([9]; (C102) 1.4 × 10^-8): 0.40 E · mole^-1
T1/2 (time for reaching half the maximum intensity following the maximum time) ([9]; (C102) 1.4 × 10^-8): 0.10 min
Tmax (time for reaching the maximum intensity) ([9]; (C102) 1.4 × 10^-8): 0.2 min
Imax (maximum intensity) ([9]; (C102) 1.4 × 10^-9): 0.3 A.U.
RC × 10^4 (chemiluminescence efficiency) ([9]; (C102) 1.4 × 10^-9): 0.20 E · mole^-1
T1/2 (time for reaching half the maximum intensity following the maximum time) ([9]; (C102) 1.4 × 10^-9): 0.08 min
Tmax (time for reaching the maximum intensity) ([9]; (C102) 1.4 × 10^-9): 0.2 min
chemiluminescence efficiency as a function of concentration ([9]; TCPO and H2O2, table 3): chemiluminescence efficiency increases with the coumar in-102 concentration
ε = molecular extinction coefficient, 365 nm [10]: 23000 M⁻¹ cm⁻¹

CCN(CC)c1ccc2c(C)cc(=O)oc2c1 [COUMARINE-1, dimethylamino-7 methyl-4 coumarin]
RC = chemiluminescence quantum efficiency [5]: 0.18 10^2 E · mole^-1
RE = excitation efficiency [5]: 0.33 10^2
RC = chemiluminescence quantum efficiency [7]: 0.37 10^2 E · mole^-1
RE = excitation efficiency [7]: 0.67 10^2
S = fluorescence sensitivity [8]: 57 10^3
RF = fluorescence quantum efficiency [8]: 0.55
ε = molecular extinction coefficient, 365 nm [10]: 38 000

Cc1cc(=O)oc2cc(N(C)C)ccc12 [COUMARINE-311, dimethylamino-7 methyl-4 coumarin]
RC = chemiluminescence quantum efficiency [5]: 0.13 10^2 E · mole^-1
RE = excitation efficiency [5]: 0.24 10^2
RC = chemiluminescence quantum efficiency [7]: 0.17 10^2 E · mole^-1
RE = excitation efficiency [7]: 0.32 10^2
S = fluorescence sensitivity [8]: 40 10^3
RF = fluorescence quantum efficiency [8]: 0.52
ε = molecular extinction coefficient, 365 nm [10]: 26900 M⁻¹ cm⁻¹
